From patent US12605753B2, “Enhanced microbial production of biosurfactants and other products, and uses thereof” (LOCUS SOLUTIONS IPCO, LLC, priority 2015, dated 2026)

Each substance was assayed on Bacillus subtilis B1, B2, and B3 strains (assay: PCR with primers for unique signature sequences). Conditions: amplicon generated by the forward/reverse primer pair (LSBS n-F / n-R) specific for Bacillus subtilis B1, B2, B3 strains.
Excerpt: Table 7 below depicts thirteen (13) pairs of primers specifically designed for the Bacillus subtilis B1, B2, and B3 strains. All 13 primers generate unique PCR amplicons for identifying the Bacillus subtilis strains of the present invention. The subsequent PCR products are unique and are not found performing a search (i.e., BLAST search) in a database such as the GenBank database.

First: LSBS 9-F (DNA GCCATCAGGCTGTTTGTAGA; listed as DNA, chemistry not given here)
Second: LSBS 7-F (DNA CCTCTGCCCAAGACATATCAA; listed as DNA, chemistry not given here)
The “PCR Product Size (bp)” value of the first is lower: 679 bp for the first, 913 bp for the second.

First: LSBS 4-F (DNA CATGCGGAACTCCAATTTCTTC; listed as DNA, chemistry not given here)
Second: LSBS 12-F (DNA TGTCCCTCTTTAGGTGCTATTG; listed as DNA, chemistry not given here)
The “PCR Product Size (bp)” value of the first is lower: 263 bp for the first, 954 bp for the second.

Compared with “LSBS 2-F (DNA TCAATTCCTCTGCACCACTTAT; listed as DNA, chemistry not given here)”, “LSBS 13-F (DNA CCCTCTAGCTCTTTCTTCTTCAC; listed as DNA, chemistry not given here)” is lower in “PCR Product Size (bp)” value: 906 bp for the first, 496 bp for the second.

First: LSBS 5-F (DNA CCATTAGGGTCAACATGGTCTAA; listed as DNA, chemistry not given here)
Second: LSBS 11-F (DNA ATGCGGCTAGACATGGATATG; listed as DNA, chemistry not given here)
The “PCR Product Size (bp)” value of the first is lower: 273 bp for the first, 687 bp for the second.

Compared with “LSBS 10-F (DNA CAGATGAAGTTGGTGGTGTTTC; listed as DNA, chemistry not given here)”, “LSBS 8-F (DNA GCTGTAGACGACTGGGTACTA; listed as DNA, chemistry not given here)” is higher in “PCR Product Size (bp)” value: 743 bp for the first, 750 bp for the second.

Going from “LSBS 1-F (DNA GGACACAGATCATTGGGAGTT; listed as DNA, chemistry not given here)” to “LSBS 6-F (DNA CACCGAACTCTGCTGAGAAA; listed as DNA, chemistry not given here)”, the “PCR Product Size (bp)” value falls from 769 bp to 523 bp.

For “LSBS 3-F (DNA CGGAGTTTGTTAGCGAAGTTATTG; listed as DNA, chemistry not given here)”, the “PCR Product Size (bp)” value was 543 bp.
